The text below walks through data of patent publication US20100249082A1, “MODULATORS OF HYPOXIA INDUCIBLE FACTOR-1 AND RELATED USES” (Bionaut Pharmaceuticals INC., priority 2007, published 2010).

For data set [1] the following is noted: cited from earlier work.
Data set [2] in a line: Sample solubility noted in the rubidium uptake assay. Particulars: DMSO 1.0%. The class given is physicochemical.
In a further data set the test system is HIF-1α expression. Kind of data set: Immunoblotting for hypoxia-mediated HIF-1α induction in human tumor cells (Caki-1, Panc-1). The conditions noted are these: Caki-1 or Panc-1 cells under hypoxia. The class given is cell-based. (In western blotting, separated proteins are transferred to a membrane and probed.)
Data set [3] relates to Na^+, K^+-ATPase. Nature of the data set: cell-based. The conditions noted are these: for Inhibition (%) / Normalized Uptake (%): CHO-K1; for Sample Solubility: CHO-K1 screen test wells, 1% DMSO. The method, then: (§1) Compounds were screened using Ion Channel Research (ICR) technology and a non-radioactive Rubidium Uptake Assay
(§2) For all the test compounds and standard blockers, 100× solutions were used to prepare 1× test doses for Na^+, K^+-ATPase screen in CHO cell line. The final DMSO concentration in each well was 1%.
(§3) • 1. […] Rb^+ Uptake: Cells were washed with 200 μl of Rb^+ Uptake Buffer once and R^+ loaded by application of 198 μl R^+ Uptake Buffer. Compounds were added at 2 μl/well of a 100× stock solution in 100% DMSO in the uptake buffer followed by incubation for 30 minutes at room temperature (c. 22° C.). The total volume in each well was 200 μl (198 μl of R^+ Uptake Buffer and 2 μl of the 100× compound). The 100× compound solution gets diluted in R^+ Uptake Buffer to 1× and the DMSO to 1%. • 3. Wash: Residual R^+ and compound were removed by four successive washes with 200 μl of SPA-Wash Buffer. • 4. Cell Lysis: Intracellular samples were obtained by whole cell lysis with the application of 200 μl Lysis Solution. • 5. Analysis: The level of R^+ in the intracellular samples was measured by ICR8000 (Aurora Biomed Inc., Vancouver, Canada). using flame atomic absorption spectroscopy.

In data set [4] the target is Na^+, K^+-ATPase (Cricetulus griseus, UniProt A0A8C2N4Z0). Kind of data set: cell-based. The method, then:
as §1, §2, §3

In data set [5] the target is T1, Na^+, K^+-ATPase (Homo sapiens, UniProt P05023).
T1 construct: The HEK-293 cell line endogenously expressing Na^+, K^+-ATPase; endogenous in cells; host or cells: HEK-293
Nature of the data set: cell-based. The conditions noted are these: for Rank order: HEK-293, ranked on potency (IC50 value).
Description: Cells were plated at a density of 50,000 cells/well in 96-well microplates and incubated at 37° C., 5% CO2 until 80-90% confluency was attained

The test system of a further data set is HIF-1α accumulation. Nature of the data set: Western blot of HIF-1α induced by PHD inhibitor L-mimosone under normoxia in Hep3B cells. The conditions noted are these: 200 μM L-mimosone for 18 hours, Western blotting. The data set is classed as cell-based. The method, then: Abundance of HIF1α and β-actin was determined by Western blotting.

As a reminder, the IC50 is the concentration that gives 50% inhibition. A higher IC50 goes with a need for much substance.

Consider `C[C@@H]1O[C@@H](O[C@@H]2C=C3CC[C@@H]4[C@H](CC[C@]5(C)[C@@H](c6ccc(=O)oc6)CC[C@]45O)[C@@]3(C)CC2)[C@H](O)[C@H](O)[C@H]1O` [BNC4, proscillaridin, reference compound], for which, in data set [1] (human, according to the literature), the “plasma half-life in human” value was “about 40 hours”. The max. plasma concentration entry in data set [1] (in vivo) is given as “about 0.1 μg/mL”. Also, the “Sample Solubility” value in data set [2] is “Good”; in the data set on Na^+, K^+-ATPase [3], “Good”. The “Potency in inhibiting HIF-1α expression relative to BNC1” value in the data set with HIF-1α expression is listed as “about 10 times”. The “Inhibition (%)” value in the data set with Na^+, K^+-ATPase [3] (dose 0.50 uM) was found to be 1.3%; in the data set on Na^+, K^+-ATPase [3] (dose 1.0 uM), 0.0%; with Na^+, K^+-ATPase [3] (dose 5.0 uM) it was 9.0%; with Na^+, K^+-ATPase [3] (dose 10 uM) it was 20.6%; with Na^+, K^+-ATPase [3] (dose 50 uM), 51.8%; in the data set on Na^+, K^+-ATPase [3] (dose 100 uM) it was 69.8%. Besides, the “Inhibition (%)” value with Na^+, K^+-ATPase [3] (dose 200 uM) stood at 86.7%; with Na^+, K^+-ATPase [3] (dose 500 uM), 100.0%. Moreover, the “Normalized Uptake (%)” value with Na^+, K^+-ATPase [3] (dose 0.50 uM) is reported as 99.4%; in the data set on Na^+, K^+-ATPase [3] (dose 1.0 uM), 100.3%; in the data set with Na^+, K^+-ATPase [3] (dose 5.0 uM) it was 93.8%; in the data set with Na^+, K^+-ATPase [3] (dose 10 uM), 80.5%; in the data set with Na^+, K^+-ATPase [3] (dose 50 uM), 54.6%; in the data set with Na^+, K^+-ATPase [3] (dose 100 uM), 44.0%. In addition, the “Normalized Uptake (%)” value in the data set with Na^+, K^+-ATPase [3] (dose 200 uM) is 38.2%; in the data set with Na^+, K^+-ATPase [3] (dose 500 uM), 28.7%. Further, the IC50 came to 46.4 µM on Na^+, K^+-ATPase [4] and 240 nM at Na^+, K^+-ATPase [5]. Moreover, the Rank order on Na^+, K^+-ATPase [5] is reported as 1. In the data set on HIF-1α accumulation, the “Effect on HIF-1α accumulation induced by L-mimosone” value is listed as “eliminated HIF-1α accumulation”.

With `C[C@]12CCC(=NOCCN3CCC(Cc4ccccc4)CC3)C=C1CCC1C2CC[C@]2(C)[C@@H](c3ccc(=O)oc3)CC[C@]12O` (stereo partly shown) [BP249, 3-[2-(4-Benzylpiperidinoethoxy)imino]-scillarinone], the “Sample Solubility” value is given as “Good” in data set [2] and “Good” with Na^+, K^+-ATPase [3]. The “Inhibition (%)” value in the data set on Na^+, K^+-ATPase [3] (dose 0.50 uM) is recorded as 0.6%; with Na^+, K^+-ATPase [3] (dose 1.0 uM), 0.0%; in the data set on Na^+, K^+-ATPase [3] (dose 5.0 uM), 2.6%; with Na^+, K^+-ATPase [3] (dose 10 uM) it was 17.9%; in the data set with Na^+, K^+-ATPase [3] (dose 50 uM), 54.2%; in the data set on Na^+, K^+-ATPase [3] (dose 100 uM) it was 73.4%. Further, the “Inhibition (%)” value in the data set on Na^+, K^+-ATPase [3] (dose 200 uM) is listed as 87.8%; in the data set on Na^+, K^+-ATPase [3] (dose 500 uM), 100.0%. In addition, the “Normalized Uptake (%)” value turned out to be 103.0% in the data set with Na^+, K^+-ATPase [3] (dose 0.50 uM); 103.5% with Na^+, K^+-ATPase [3] (dose 1.0 uM); 100.7% in the data set on Na^+, K^+-ATPase [3] (dose 5.0 uM); 87.9% in the data set on Na^+, K^+-ATPase [3] (dose 10 uM); 57.3% with Na^+, K^+-ATPase [3] (dose 50 uM); 41.0% in the data set with Na^+, K^+-ATPase [3] (dose 100 uM). The “Normalized Uptake (%)” value is 29.0% in the data set on Na^+, K^+-ATPase [3] (dose 200 uM) and 18.7% in the data set on Na^+, K^+-ATPase [3] (dose 500 uM). Further, the IC50 at Na^+, K^+-ATPase [4] came to 41.9 µM; on Na^+, K^+-ATPase [5] it was 5530 nM. This molecule also returned a Rank order at Na^+, K^+-ATPase [5] of 4.
